Measurements: BigSolDB 2.1

NC(=O)[C@@H]1CCCN1
solubility (mole fraction)
Settings | in DMF | in THF | in acetone | in acetonitrile | in cyclohexane | in ethyl acetate | in isopropanol | in n-heptane | in n-hexane | in n-propanol
278.15 K | 0.0422 | 0.0621 | 0.0644 | 0.0557 | 6e-05 | 0.0134 | 0.0532 | 0.00025 | 6e-05 | 0.0467
283.15 K | 0.0578 | 0.075 | 0.078 | 0.0634 | 9e-05 | 0.0179 | 0.0618 | 0.00036 | 9e-05 | 0.0597
288.15 K | 0.0758 | 0.0885 | 0.0956 | 0.073 | 0.00014 | 0.0242 | 0.0795 | 0.00049 | 0.00015 | 0.0753
293.15 K | 0.0976 | 0.107 | 0.113 | 0.0838 | 0.00022 | 0.0315 | 0.0995 | 0.00068 | 0.00023 | 0.0933
298.15 K | 0.123 | 0.129 | 0.133 | 0.0951 | 0.00032 | 0.042 | 0.125 | 0.00096 | 0.00032 | 0.111
303.15 K | 0.156 | 0.156 | 0.154 | 0.106 | 0.00051 | 0.0549 | 0.153 | 0.00131 | 0.00051 | 0.13
308.15 K | 0.194 | 0.189 | 0.177 | 0.116 | 0.00079 | 0.0711 | 0.19 | 0.0018 | 0.00077 | 0.16
313.15 K | 0.238 | 0.228 | 0.2 | 0.127 | 0.00124 | 0.0927 | 0.23 | 0.00239 | 0.00112 | 0.204
318.15 K | 0.288 | 0.287 | 0.225 | 0.138 | 0.0017 | 0.121 | 0.28 | 0.00304 | 0.00159 | 0.259
323.15 K | 0.347 | 0.362 | 0.252 | 0.148 | 0.00231 | 0.154 | 0.355 | 0.00401 | 0.00212 | 0.328
